Source: PMC4601562 (Bioorganic & medicinal chemistry, 2015)

Experiments:
Assay type in all cases: biochemical
[1] = biological target: vcASADH (Vibrio cholerae, UniProt Q9KQG2); assay: ASADH kinetic assay
[2] = biological target: T1, spASADH (Streptococcus pneumoniae, UniProt Q8DQ00)
T1 sequence (Q8DQ00 1-358): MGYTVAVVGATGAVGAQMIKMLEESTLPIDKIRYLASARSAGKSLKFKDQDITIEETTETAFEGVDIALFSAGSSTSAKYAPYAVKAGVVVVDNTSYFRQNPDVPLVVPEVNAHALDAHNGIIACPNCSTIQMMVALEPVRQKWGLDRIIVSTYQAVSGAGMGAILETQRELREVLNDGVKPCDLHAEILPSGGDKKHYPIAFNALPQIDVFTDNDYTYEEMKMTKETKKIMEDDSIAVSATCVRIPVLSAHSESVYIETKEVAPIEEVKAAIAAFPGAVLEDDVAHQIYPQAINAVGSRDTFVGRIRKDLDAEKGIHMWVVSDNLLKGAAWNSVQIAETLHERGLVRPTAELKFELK

[3] = tested on: spASADH; details: ratio of Ki vcASADH / spASADH

Sequence of vcASADH (Q9KQG2 whole entry): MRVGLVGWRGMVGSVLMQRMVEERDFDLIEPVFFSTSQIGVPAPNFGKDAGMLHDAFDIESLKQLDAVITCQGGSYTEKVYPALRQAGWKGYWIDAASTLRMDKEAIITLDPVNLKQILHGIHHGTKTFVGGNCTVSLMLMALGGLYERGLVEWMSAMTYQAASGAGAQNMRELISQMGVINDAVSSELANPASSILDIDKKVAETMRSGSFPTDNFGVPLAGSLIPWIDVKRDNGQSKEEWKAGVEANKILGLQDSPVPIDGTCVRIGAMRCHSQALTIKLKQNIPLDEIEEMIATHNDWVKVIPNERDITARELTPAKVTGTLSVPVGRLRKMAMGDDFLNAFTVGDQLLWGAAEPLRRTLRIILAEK

SMILES: O=C([O-])CCNCc1ccc(C(=O)[O-])c(C(=O)[O-])c1.[Na+].[Na+].[Na+] [compound 4, N-carboxyethyl-3,4-dicarboxybenzylamine]
- inhibition of vcASADH (in words) [1]: did not show appreciable inhibition

SMILES: CN(CC(=O)[O-])Cc1cccc(C(=O)[O-])c1C(=O)[O-].[Na+].[Na+].[Na+] [compound 9, N-methyl, N-carboxymethyl-2,3-dicarboxybenzylamine]
- inhibition of vcASADH (in words) [1]: no inhibition

SMILES: O=C([O-])CN(Cc1ccc(C(=O)[O-])c(C(=O)[O-])c1)c1ccc(-c2ccccc2)cc1.[Na+].[Na+].[Na+] [compound 17, N-(4-biphenyl)-N-carboxymethyl-3,4-dicarboxybenzylamine]
- improved inhibition of spASADH relative to the parent benzyl derivative ([2]; relative to parent benzyl derivative (13)): 25 fold

SMILES: NC(=O)c1ccc(CN(CC(=O)[O-])Cc2ccc(C(=O)[O-])c(C(=O)[O-])c2)cc1.[Na+].[Na+].[Na+] [compound 32, N-(4-carboxamidebenzyl)-N-carboxymethyl-3,4-dicarboxybenzylamine]
- loss of affinity ([2]; carboxamide (32) relative to p-carboxylbenzyl derivative (31)): 3 fold

SMILES: CC(C)(C)c1ccc(CN(CC(=O)[O-])Cc2ccc(C(=O)[O-])c(C(=O)[O-])c2)cc1.[Na+].[Na+].[Na+] [compound 33, N-(4-t-butylbenzyl)-N-carboxymethyl-3,4-dicarboxybenzylamine]
- selectivity for spASADH relative to vcASADH [3]: over 40 fold
